The values that follow come from patent publication US8906904B2, “Alkoxy pyrazoles as soluble guanylate cyclase activators” (Boehringer Ingelheim International GmbH, priority 2012, dated 2014).

For orientation: EC50 means the concentration at which the effect is half-maximal. A low value points to higher potency in that assay.

System in one series: not listed separately
The series is described as follows: human liver microsome (HLM) metabolic stability assay. It counts as in vitro ADME. Particulars: human liver microsomes; % hepatic blood flow calculated from t1/2. The method in brief: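 Compounds at 1 uM incubated with human liver microsomes plus NADPH at 37° C., sampled at 0, 5, 15, 30 and 60 min into cold acetonitrile and quantified by LC/MS/MS. t½ from the slope of ln % remaining vs time; CLint, CLh and % Qh derived from it (n=1).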
On to `COc1c(C(=O)O)cnn1-c1cccc(-c2cccc(C)c2OCc2cc(C)c3c(c2)CCN(C2CCOC2)C3)n1` (stereo not drawn) [Compound 242], for which the “HLM (% Qh)” value was under 24 % Qh.
As to `CCOc1c(C(=O)O)cnn1-c1cccc(-c2cccc(C)c2OCc2cc(C)c3c(c2)CCN(CC2COCCO2)C3)n1` (stereo not drawn) [Compound 243], the “HLM (% Qh)” value is under 24 % Qh.
Consider `COCC(C)N1CCc2cc(COc3c(C)cccc3-c3cccc(-n4ncc(C(=O)O)c4OC)n3)cc(C)c2C1` (stereo not drawn) [Compound 244], for which the “HLM (% Qh)” value was under 24 % Qh.
For the compound `CCOc1c(C(=O)O)cnn1-c1cccc(-c2cccc(C)c2OCc2ccc3c(c2)CCCN(C2CCCOC2)C3)n1` (stereo not drawn) [Compound 245], the “HLM (% Qh)” value is recorded as under 24 % Qh.
Still for that read-out and setting: in the case of `COc1c(C(=O)O)cnn1-c1cccc(-c2cccc(C)c2OCc2ccc3c(c2)CN(CC2COCCO2)C3)n1` (stereo not drawn) [Compound 247] it was under 24 % Qh.
For the compound `CCc1cc(COc2c(C)cccc2-c2cccc(-n3ncc(C(=O)O)c3OC)n2)cc2c1CN(C1CCOCC1)CC2` [Compound 248], the “HLM (% Qh)” value was under 24 % Qh.
In the case of `CCc1cc(COc2c(C)cccc2-c2cccc(-n3ncc(C(=O)O)c3OC)n2)cc2c1CN(C1COC1)CC2` [Compound 249], the “HLM (% Qh)” value is listed as under 24 % Qh.
`COc1c(C(=O)O)cnn1-c1cccc(-c2cccc(C)c2OCc2cc(C#N)c3c(c2)CCN(C2CCOCC2)C3)n1` [Compound 250]: the “HLM (% Qh)” value was under 24 % Qh.
Take `COc1c(C(=O)O)cnn1-c1cccc(-c2cccc(C)c2OCc2ccc3c(c2F)CCN([C@H]2CCOC2)C3)n1` [Compound 251]: the “HLM (% Qh)” value is under 24 % Qh.
Regarding `COc1c(C(=O)O)cnn1-c1cccc(-c2cccc(C)c2OCc2ccc3c(c2F)CCN([C@@H]2CCOC2)C3)n1` [Compound 252], the “HLM (% Qh)” value is reported as under 24 % Qh.
The same measure, in the same setting: in the case of `COc1c(C(=O)O)cnn1-c1cccc(-c2cccc(C)c2OCc2cc(F)c3c(c2)CCN([C@@H]2CCOC2)C3)n1` [Compound 253] it was under 24 % Qh.
As for `COc1c(C(=O)O)cnn1-c1cccc(-c2cccc(C)c2OCc2cc(F)c3c(c2)CCN([C@H]2CCOC2)C3)n1` [Compound 254], the “HLM (% Qh)” value is listed as under 24 % Qh.

The next series deals with T1, human soluble guanylate cyclase alpha 1 and beta 1 subunits (sGC) (Homo sapiens, UniProt Q02108+Q02153).
T1 construct: expressed in transfected cells; host or cells: Chinese hamster ovary (CHO) cells, stably transfected
T1 sequence (Q02108 1-690): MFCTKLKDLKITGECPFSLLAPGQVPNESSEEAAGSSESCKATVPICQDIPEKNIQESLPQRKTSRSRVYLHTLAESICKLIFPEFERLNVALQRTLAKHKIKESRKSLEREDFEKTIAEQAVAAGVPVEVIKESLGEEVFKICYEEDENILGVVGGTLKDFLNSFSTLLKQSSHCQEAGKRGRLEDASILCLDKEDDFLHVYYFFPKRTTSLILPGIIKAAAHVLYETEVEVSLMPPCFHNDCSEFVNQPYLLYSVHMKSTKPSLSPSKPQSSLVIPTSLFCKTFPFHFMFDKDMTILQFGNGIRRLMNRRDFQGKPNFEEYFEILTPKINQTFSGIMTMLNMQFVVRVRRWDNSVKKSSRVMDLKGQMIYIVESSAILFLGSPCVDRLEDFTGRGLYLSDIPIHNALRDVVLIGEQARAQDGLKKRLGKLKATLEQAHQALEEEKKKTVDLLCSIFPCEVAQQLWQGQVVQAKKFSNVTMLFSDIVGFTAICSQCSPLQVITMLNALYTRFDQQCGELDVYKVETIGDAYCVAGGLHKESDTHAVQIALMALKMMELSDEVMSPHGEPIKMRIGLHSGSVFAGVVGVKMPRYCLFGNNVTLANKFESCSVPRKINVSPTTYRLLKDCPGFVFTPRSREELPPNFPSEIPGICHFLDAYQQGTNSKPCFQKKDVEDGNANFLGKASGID
T1 sequence (Q02153 1-619): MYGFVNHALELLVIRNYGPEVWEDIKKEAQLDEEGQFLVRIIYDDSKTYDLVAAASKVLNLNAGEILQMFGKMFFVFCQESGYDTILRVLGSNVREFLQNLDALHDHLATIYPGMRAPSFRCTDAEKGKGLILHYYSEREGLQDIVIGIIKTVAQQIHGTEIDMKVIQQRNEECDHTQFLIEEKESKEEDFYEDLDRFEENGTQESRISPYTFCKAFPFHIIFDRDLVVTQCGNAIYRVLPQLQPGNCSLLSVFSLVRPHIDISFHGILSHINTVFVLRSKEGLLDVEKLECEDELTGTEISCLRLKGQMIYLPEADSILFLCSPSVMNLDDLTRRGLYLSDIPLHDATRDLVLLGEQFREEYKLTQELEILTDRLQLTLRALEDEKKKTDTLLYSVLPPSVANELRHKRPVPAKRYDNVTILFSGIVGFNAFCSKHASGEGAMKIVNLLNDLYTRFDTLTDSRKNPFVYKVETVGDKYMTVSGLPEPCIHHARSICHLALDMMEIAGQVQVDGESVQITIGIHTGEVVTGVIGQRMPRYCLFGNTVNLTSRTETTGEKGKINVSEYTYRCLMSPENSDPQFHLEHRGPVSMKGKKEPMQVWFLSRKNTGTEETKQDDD
As to the kind of experiment: sGC cellular activator assay (cGMP, HTRF). Type of series: cell-based. To be noted: CHO cells stably expressing human sGC alpha 1/beta 1, preincubated with 40 microM ODQ; cGMP readout; assay run with and without 50% human serum, Table 2 does not say which. In outline:
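Heme-oxidized conditions: ODQ (40 microM, 1 h) pretreatment of CHO cells stably expressing human α1/β1 sGC, in buffer containing 0.1% BSA and IBMX.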
For orientation: In TR-FRET formats the signal depends on donor and acceptor labels being close together.
Consider `COc1c(C(=O)O)cnn1-c1cccc(-c2cccc(C)c2OCc2cc(C)c3c(c2)CCN(C2CCOC2)C3)n1` (stereo not drawn) [Compound 242], for which the EC50 was found to be 11 nM.
`CCOc1c(C(=O)O)cnn1-c1cccc(-c2cccc(C)c2OCc2cc(C)c3c(c2)CCN(CC2COCCO2)C3)n1` (stereo not drawn) [Compound 243] gave an EC50 of 16 nM.
For `COCC(C)N1CCc2cc(COc3c(C)cccc3-c3cccc(-n4ncc(C(=O)O)c4OC)n3)cc(C)c2C1` (stereo not drawn) [Compound 244], the EC50 amounted to 23 nM.
The same measure, in the same setting: under `CCOc1c(C(=O)O)cnn1-c1cccc(-c2cccc(C)c2OCc2ccc3c(c2)CCCN(C2CCCOC2)C3)n1` (stereo not drawn) [Compound 245] stands 280 nM; under `COc1c(C(=O)O)cnn1-c1cccc(-c2cccc(C)c2OCc2ccc3c(c2)CN(CC2COCCO2)C3)n1` (stereo not drawn) [Compound 247], 8.6 nM; under `CCc1cc(COc2c(C)cccc2-c2cccc(-n3ncc(C(=O)O)c3OC)n2)cc2c1CN(C1CCOCC1)CC2` [Compound 248], 4.2 nM.
Still for that read-out and setting: under `CCc1cc(COc2c(C)cccc2-c2cccc(-n3ncc(C(=O)O)c3OC)n2)cc2c1CN(C1COC1)CC2` [Compound 249] stands 4.6 nM; under `COc1c(C(=O)O)cnn1-c1cccc(-c2cccc(C)c2OCc2cc(C#N)c3c(c2)CCN(C2CCOCC2)C3)n1` [Compound 250], 44 nM; under `COc1c(C(=O)O)cnn1-c1cccc(-c2cccc(C)c2OCc2ccc3c(c2F)CCN([C@H]2CCOC2)C3)n1` [Compound 251], 7 nM.
Regarding `COc1c(C(=O)O)cnn1-c1cccc(-c2cccc(C)c2OCc2ccc3c(c2F)CCN([C@@H]2CCOC2)C3)n1` [Compound 252], it took 10 nM to reach a half-maximal effect (EC50).
The same measure, in the same setting: under `COc1c(C(=O)O)cnn1-c1cccc(-c2cccc(C)c2OCc2cc(F)c3c(c2)CCN([C@@H]2CCOC2)C3)n1` [Compound 253] stands 13 nM.
In turn, `COc1c(C(=O)O)cnn1-c1cccc(-c2cccc(C)c2OCc2cc(F)c3c(c2)CCN([C@H]2CCOC2)C3)n1` [Compound 254] came in with an EC50 of 25 nM.
